{
  "source": "patent US12161114B2",
  "about": "“Overpowered ABA receptor agonists” (The Regents of the University of California, priority 2018, dated 2024)",
  "key": {"[1]": {"tested_on": "pyr1/pyl1, pyl8/pyl9 and abi1C mutants", "test": "seed germination on receptor mutants and ABA signalling mutant abi1C", "format": "in vivo, Arabidopsis", "details": "tested at twice the EC50", "procedure": "Prior to selecting a scaffold for optimization we conducted Arabidopsis seed germination assays to establish if the hits obtained are activity in vivo. Germination experiments were performed with surface sterilized wild type Columbia Arabidopsis thaliana seeds and abi1C (the abi1-1 allele isolated in the Columbia ecotype) plated onto 0.7% agar medium containing 1/2-x MS salts, 0.5% sucrose and differing concentrations of the test compounds. After 4d of stratification at 4° C., the plates were transferred to a growth chamber under continuous illumination and evaluated after 4 days.\nMethods similar to example 3 were followed."}, "[2]": {"tested_on": "panel of recombinant ABA receptors; PP2C HAB1", "test": "receptor-mediated PP2C inhibition assay, dose response, umbelliferone substrate", "format": "biochemical, Arabidopsis", "procedure": "Each ligand was tested at concentrations spanning 7 points between 4 nM and 50 μM in triplicate in a reaction buffer containing 100 mM Tris-HCl-pH7.9, 100 mM NaCl, 30 μg/ml BSA, 0.1% 2-mercaptoethanol, 25 nM ΔN-HAB1, 1 mM 4-methylumbelliferyl phosphate, and different recombinant ABA receptors at 50 nM or 300 nM (for PYL9 or PYL11). The substrate was added ˜20 minutes after the other components had been mixed and fluorescence data collected. Control carrier solvent-only wells were included as a reference and %-activity for tested compounds calculated relative to this control. The dose response data (PP2C activity versus agonist concentration) was fit to a log (inhibitor) vs. response-(variable slope) model using non-linear regression to infer the IC50S, using GraphPad Prism 6.0, to yield the IC50 values shown in FIG. 6.\nThe potency and selectivity of ligands 2b, 2e-f was established by testing their ability to activate multiple ABA receptor subtypes using the fluorescence based phosphasted assay as outlined in example 2 at a range of concentrations (4 nM to 50 μM). In addition, we compared ligand potency to ABA, quinabactin and a recently described fluorinated quinabactin analog AMF4, which is reported to have improved potency in comparison toe quinabactin. To conduct the assays purified recombinant receptors were tested at 50 nM or, in the a cases of PYL9 and PYL11, 300 nM and 25 nM ΔN-HAB1. The PP2C-activity dose response data obtained was fit to a log (inhibitor) vs response-(variable slope) model using non-linear regression to infer the IC50S, using GraphPad Prism 6.0, to yield IC50 values as shown in FIG. 12A. […] Moreover, the installation of a single cyclopropyl group ortho to the nitrile (analog 2e) provided a further boost in potency, dramatically so for all subfamily III receptors, PYL4 and PYL11. […] Furthermore, the installation of a second cyclopropyl substituent (analog 2f) provides an even further boot in activity on subfamily III receptors, which comes at the expense of reduced potency on subfamily I receptors. […] 2f is therefore an unusually overpowered ABA receptor agonist, which we refer to as opabactin (Opa)."}, "Arabidopsis plants": {"tested_on": "Arabidopsis plants", "test": "thermal imaging of leaf temperature (anti-transpirant activity), Arabidopsis", "format": "in vivo, Arabidopsis thaliana", "details": "50 μM spray, 24 hr after treatment", "procedure": "Three to 4 week old Arabidopsis plants were used for thermal imaging, 4 evenly spaced seedlings were included per 4-inch pot, each pot treated as a single measurement. Chemical treatments were as follow: compounds were dissolved in 0.5% DMSO and 0.02% Silwet-77 (Lehle seeds) at 50 μM and rosette leaves treated with 5 mL applied as an aerosol. Thermal images were collected using FLIR T62101 camera 24 hr after treatment. Seedlings positions were randomized to control for microenvironmental differences in the growth room. Treated plants were compared to mock treated plants (sprayed with 5 mL blank 0.5% DMSO/0.02% Silwet-77 solution). Average rosette leaf temperatures were obtained by averaging the temperatures measured from between 10-15˜1 cm^2 area spots from the 4 plants in each replicate pot, using FLIR software. Statistical analyses of the treatment effects were conducted in GraphPad using a one way ANOVA between control and treatment samples and a Dunnett test was used to obtain multiplicity adjusted p values, which are reported in FIG. 15."}, "[3]": {"tested_on": "Arabidopsis pMAPKKK18-Luc+ reporter strain seedlings", "test": "ABA reporter gene luminescence assay", "format": "in vivo", "details": "25 μM, 6-hours post-treatment", "procedure": "Liquid grown Arabidopsis […]18-Luc+ reporter strain seedlings were treated with 25 μM test compounds or a mock control and 100 μM luciferin. Luminescence images were captured 6-hours post-treatment."}},
  "note": "Entries after “also recorded” stand apart in the source; their conditions may differ.",
  "data": [
    {"smiles": "N#Cc1c(C2CC2)cc(CC(=O)NC2(C(=O)O)CCCCC2)cc1C1CC1", "note": "[2f, 1-[2-(4-cyano-3,5-dicyclopropylphenyl)acetamido]cyclohexane-1-carboxylic acid]", "values": [
      {"measurement": "effect on germination in receptor mutant backgrounds", "setting": "[1]", "value": "only show diminished activity in the pyr1/pyl1 mutant"},
      {"measurement": "potency in receptor-mediated PP2C inhibition (in words)", "setting": "[2]; 4 nM to 50 μM dose response", "value": "most potent subfamily III agonist reported to date; also recorded: greatly more active than quinabactin and AMF4 on subfamily III receptors"},
      {"measurement": "improved potency relative to ABA", "setting": "[2]; subfamily IIIA receptors", "value": "> 10", "unit": "x"},
      {"measurement": "effects on transpiration (leaf temperature)", "setting": "Arabidopsis plants", "value": "ABA-like effects on transpiration"},
      {"measurement": "induction of ABA-transcriptional responses (luminescence)", "setting": "[3]", "value": "effective inducer of ABA-transcriptional responses"}
    ]}
  ]
}
